Assay results published in patent US20120196899A1, “METHODS AND PRODUCTS FOR TREATING INFLAMMATION” (Rock Creek Pharmaceuticals, Inc., priority 2010, published 2012).
Values joined by “and” are separate entries in the source; they are usually repeats but may differ in a detail not shown here. Equal values may be shown once.

Columns and labels:
[1] = Clinical chemistry, day 15; assay type: in vivo, Sprague-Dawley rats
Description: On day 15, urine was collected on all surviving animals for urinalysis. The animals were euthanized and bled via cardiac puncture. Blood was collected for hematology, clinical chemistry, and coagulation analysis. Tissues were collected, weighed, and stored in 10% neutral-buffered formalin for possible future analysis.

HEK293 = test: LDH cytotoxicity assay on supernatants of the treated cells; assay type: cell-based, Human
Method: Cytotoxicity assays using the supernatants from the treated cells were conducted using an LDH Cytotoxicity Detection Kit (Roche) according to the manufacturer's instructions.

[2] = anatabine 0.75 mg/kg, female rats, individual animals
[3] = anatabine 0.75 mg/kg, male rats, individual animals

C1=CCC(c2cccnc2)NC1 (racemic) [Anatabine, 1,2,3,6-tetrahydro-[2,3′]bipyridinyl]
BUN [1, 2]: 15 mg/dL (3×) and 16 mg/dL (2×)
CHLORIDE [1, 2]: 97 mEq/L (2×) and 96 mEq/L and 99 mEq/L and 101 mEq/L
CHOLESTEROL [1, 2]: 66 mg/dL and 64 mg/dL and 63 mg/dL and 69 mg/dL and 87 mg/dL
CREATININE [1, 2]: 0.5 mg/dL (2×) and 0.4 mg/dL (3×)
DIR BILIRUBIN [1, 2]: 0 mg/dL
GLOBULIN [1, 2]: 2.7 g/dL and 3 g/dL (2×)
GLUCOSE [1, 2]: 237 mg/dL and 247 mg/dL and 217 mg/dL
PHOSPHORUS [1, 2]: 9.7 mg/dL and 7.7 mg/dL and 9.6 mg/dL and 9.2 mg/dL and 7 mg/dL
POTASSIUM [1, 2]: 5.5 mEq/L and 5.9 mEq/L and 6 mEq/L and 5.7 mEq/L and 6.3 mEq/L
SODIUM [1, 2]: 145 mEq/L (2×) and 144 mEq/L (2×) and 147 mEq/L
TOT BILIRUBIN [1, 2]: 0 mg/dL
TOT PROTEIN [1, 2]: 6.3 g/dL (2×) and 6.2 g/dL and 6.6 g/dL and 6.5 g/dL
ALBUMIN [1, 3]: 3.4 g/dL (2×) and 3.1 g/dL and 3.2 g/dL and 3.3 g/dL
ALK PHOSPHATASE [1, 3]: 479 IU/L and 297 IU/L and 325 IU/L and 337 IU/L and 416 IU/L
ALT [1, 3]: 75 IU/L and 57 IU/L and 65 IU/L and 50 IU/L and 87 IU/L
AST [1, 3]: 103 IU/L and 66 IU/L and 97 IU/L and 90 IU/L and 92 IU/L
BUN [1, 3]: 15 mg/dL and 18 mg/dL and 12 mg/dL and 17 mg/dL and 21 mg/dL
CHLORIDE [1, 3]: 98 mEq/L and 99 mEq/L (2×) and 100 mEq/L and 97 mEq/L
CHOLESTEROL [1, 3]: 69 mg/dL (2×) and 60 mg/dL and 54 mg/dL and 62 mg/dL
CREATININE [1, 3]: 0.4 mg/dL (3×) and 0.3 mg/dL (2×)
DIR BILIRUBIN [1, 3]: 0 mg/dL (4×) and 0.1 mg/dL
GLOBULIN [1, 3]: 2.6 g/dL and 2.7 g/dL and 2.9 g/dL
GLUCOSE [1, 3]: 222 mg/dL and 160 mg/dL and 198 mg/dL
PHOSPHORUS [1, 3]: 11 mg/dL and 10.7 mg/dL and 10 mg/dL and 10.6 mg/dL
POTASSIUM [1, 3]: 6.3 mEq/L (2×) and 5.4 mEq/L and 6 mEq/L and 6.6 mEq/L
SODIUM [1, 3]: 147 mEq/L and 150 mEq/L
TOT BILIRUBIN [1, 3]: 0 mg/dL (4×) and 0.1 mg/dL
TOT PROTEIN [1, 3]: 6.2 g/dL and 5.7 g/dL and 5.9 g/dL and 6.1 g/dL and 6.3 g/dL
albumin levels ([1]; anatabine: males 0.75 and […], females 0.1 and 0.75 mg/kg): slight increases in albumin levels
ALBUMIN ([1]; female, 0.1 mg/kg, group mean): 3.62 g/dL
ALK PHOSPHATASE ([1]; female, 0.1 mg/kg, group mean): 248.40 IU/L
ALT ([1]; female, 0.1 mg/kg, group mean): 49.60 IU/L
AST ([1]; female, 0.1 mg/kg, group mean): 77.00 IU/L
DIR BILIRUBIN ([1]; female, 0.1 mg/kg, group mean): 0.00 mg/dL
GLOBULIN ([1]; female, 0.1 mg/kg, group mean): 3.02 g/dL
TOT BILIRUBIN ([1]; female, 0.1 mg/kg, group mean): 0.00 mg/dL
TOT PROTEIN ([1]; female, 0.1 mg/kg, group mean): 6.64 g/dL
ALBUMIN ([1]; female, 0.75 mg/kg, group mean): 3.52 g/dL
ALK PHOSPHATASE ([1]; female, 0.75 mg/kg, group mean): 158.00 IU/L
ALT ([1]; female, 0.75 mg/kg, group mean): 54.60 IU/L
AST ([1]; female, 0.75 mg/kg, group mean): 73.20 IU/L
BUN ([1]; female, 0.75 mg/kg, group mean): 15.40 mg/dL
DIR BILIRUBIN ([1]; female, 0.75 mg/kg, group mean): 0.00 mg/dL
GLOBULIN ([1]; female, 0.75 mg/kg, group mean): 2.86 g/dL
TOT BILIRUBIN ([1]; female, 0.75 mg/kg, group mean): 0.00 mg/dL
TOT PROTEIN ([1]; female, 0.75 mg/kg, group mean): 6.38 g/dL
ALBUMIN ([1]; male, 0.1 mg/kg, group mean): 3.24 g/dL
ALK PHOSPHATASE ([1]; male, 0.1 mg/kg, group mean): 407.40 IU/L
ALT ([1]; male, 0.1 mg/kg, group mean): 70.60 IU/L
AST ([1]; male, 0.1 mg/kg, group mean): 96.00 IU/L
BUN ([1]; male, 0.1 mg/kg, group mean): 18.00 mg/dL
DIR BILIRUBIN ([1]; male, 0.1 mg/kg, group mean): 0.00 mg/dL
GLOBULIN ([1]; male, 0.1 mg/kg, group mean): 2.86 g/dL
TOT BILIRUBIN ([1]; male, 0.1 mg/kg, group mean): 0.00 mg/dL
TOT PROTEIN ([1]; male, 0.1 mg/kg, group mean): 6.10 g/dL
ALBUMIN ([1]; male, 0.75 mg/kg, group mean): 3.28 g/dL
ALK PHOSPHATASE ([1]; male, 0.75 mg/kg, group mean): 370.80 IU/L
ALT ([1]; male, 0.75 mg/kg, group mean): 66.80 IU/L
AST ([1]; male, 0.75 mg/kg, group mean): 89.60 IU/L
DIR BILIRUBIN ([1]; male, 0.75 mg/kg, group mean): 0.02 mg/dL
TOT BILIRUBIN ([1]; male, 0.75 mg/kg, group mean): 0.02 mg/dL
TOT PROTEIN ([1]; male, 0.75 mg/kg, group mean): 6.04 g/dL
globulins ([1]; males, all anatabine dose levels, nicotine 0.75 mg/kg): marginally higher
cytotoxicity (LDH release) (HEK293): without cellular toxicity
